The target of one series is insulin (Homo sapiens, UniProt P01308). The experiment in a line: Inhibition of peptide and protein aggregation (insulin precipitation). The class given is physicochemical. Conditions: insulin 0.4 mg/ml, surfactant 1.4 mg/ml, pH 6.8 or 7.4, 25 and 40° C., 2-12 weeks. The source says:
Inhibition of peptide and protein aggregation is crucial for the physical stability and safety, particularly for pharmaceutics for injection (injectabilia). Therefore, surfactants are normally applied as inhibitors of peptide and protein aggregation in such formulations. The ability, of a C16G8/14 mixture to inhibit peptide and protein aggregation in solution was investigated using insulin as model peptide.

The conditions of series [1]: literature values [11-13]; cited from earlier work.

Chain of insulin (P01308 25-54 limits assumed, species assumed): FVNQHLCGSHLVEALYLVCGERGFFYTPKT
Chain of insulin (P01308 90-110 limits assumed, species assumed): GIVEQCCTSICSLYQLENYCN

`CCCCCCCCCCCCCCO[C@@H]1O[C@H](CO)[C@@H](O[C@@H]2O[C@@H](CO)[C@H](O)[C@@H](O)[C@@H]2O)[C@H](O)[C@H]1O` (stereo in doubt) [C14G2, tetradecylmaltoside]: the “Inhibition of insulin precipitation (visual inspection)” value at insulin is recorded as “unable to inhibit precipitation, even under non-accelerated conditions”. In addition, the Krafft point in series [1] is 32 °C.

`CCCCCCCCCCCCO[C@@H]1O[C@H](CO)[C@@H](O)[C@H](O)[C@H]1O` [C12G1]: the Krafft point in series [1] was 38 °C.
